According to patent US11958861B2, “Spirocyclic lactams as JAK2 V617F inhibitors” (Incyte Corporation, priority 2021, dated 2024):
Where a name gives a salt, the structure may show the parent alone.

Tests used:
[1] = molecular target: T1, catalytic domain (JH1, amino acids 808-1132) of human JAK2 (Homo sapiens, UniProt O60674); assay: JAK2 HTRF Enzyme Activity Assay; format: biochemical; settings: ATP 30 μM, read-out: ENZ 30UMATP
T1 construct: catalytic domain (JH1, amino acids 808-1132) of human JAK2; His (N); purchased BPS Bioscience 40450; host or cells: baculovirus expression system
T1 sequence (O60674 808-1132): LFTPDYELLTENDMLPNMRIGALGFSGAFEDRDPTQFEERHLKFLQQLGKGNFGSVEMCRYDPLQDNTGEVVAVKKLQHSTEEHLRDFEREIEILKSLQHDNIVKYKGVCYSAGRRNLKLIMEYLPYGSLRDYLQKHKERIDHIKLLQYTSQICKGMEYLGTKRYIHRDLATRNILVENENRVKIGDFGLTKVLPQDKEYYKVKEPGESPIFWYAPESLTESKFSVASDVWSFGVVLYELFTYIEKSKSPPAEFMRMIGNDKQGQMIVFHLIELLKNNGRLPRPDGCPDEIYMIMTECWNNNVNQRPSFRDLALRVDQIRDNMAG
How it was run: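 His-tagged JAK2 JH1 from baculovirus, 0.015 nM, incubated with compound, ATP at 30 μM or 1 mM and 500 nM biotinylated peptide, pH 7.5, 60 min at 25° C. HTRF read-out via Eu-anti-phosphotyrosine and streptavidin-APC after EDTA stop; IC50 from four-parameter dose-response fit.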

[2] = molecular target: T2, pseudo-kinase domain (JH2, amino-acids 536-812) of human Wild Type JAK2 (Homo sapiens, UniProt O60674, F794H/W659A/W777A); assay: JAK2 LanthaScreen JH2-WT Binding Assay; settings: 1 hour at 25° C.
T2 construct: pseudo-kinase domain (JH2, amino-acids 536-812 with 3 surface mutations W659A, W777A, F794H); purchased BPS Bioscience 79463; host or cells: baculovirus expression system
T2 sequence (O60674 536-812 W659A/W777A/F794H): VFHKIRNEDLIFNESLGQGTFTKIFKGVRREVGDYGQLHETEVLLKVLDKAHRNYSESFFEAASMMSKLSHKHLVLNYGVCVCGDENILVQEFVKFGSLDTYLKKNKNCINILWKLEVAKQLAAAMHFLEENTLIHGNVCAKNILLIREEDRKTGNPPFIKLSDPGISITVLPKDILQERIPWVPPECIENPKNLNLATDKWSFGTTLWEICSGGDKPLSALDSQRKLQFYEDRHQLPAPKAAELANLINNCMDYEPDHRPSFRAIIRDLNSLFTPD
How it was run: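 Biotinylated His-Avi-tagged JAK2 JH2 (0.145 nM), baculovirus-expressed, incubated with compounds, 50 nM fluorescent JH2 tracer and 0.25 nM streptavidin-Tb, 1 h at 25° C in pH 7.5 Tris buffer with MgCl2 and DTT. Non-specific binding defined with 2 mM ATP. TR-FRET read; IC50 from four-parameter fit.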

[3] = molecular target: T3, pseudo-kinase domain (JH2, amino-acids 536-812) of human V617F mutant JAK2 (Homo sapiens, UniProt O60674, F794H/V617F/W659A/W777A); assay: JAK2 LanthaScreen JH2-V617F Binding Assay; settings: 1 hour at 25° C.
T3 construct: pseudo-kinase domain (JH2, amino-acids 536-812 with 3 surface mutations W659A, W777A, F794H); purchased BPS Bioscience 79498; host or cells: baculovirus expression system
T3 sequence (O60674 536-812 V617F/W659A/W777A/F794H): as the sequence (O60674 536-812 W659A/W777A/F794H) above, with V82F counted along it
How it was run: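 Biotinylated His-Avi-tagged JH2 protein was baculovirus-expressed and used at 0.26 nM. It was incubated with compound, 50 nM fluorescent JH2 tracer and 0.25 nM streptavidin-Tb for 1 h at 25 °C in pH 7.5 Tris buffer with MgCl2, BSA, DTT. Non-specific binding was defined with 2 mM ATP. IC50 came from four-parameter fits of TR-FRET signal.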

[4] = molecular target: T4, catalytic domain (JH1, amino acids 826-1132) of human JAK2 (Homo sapiens, UniProt O60674); assay: JAK2 LanthaScreen JH1 Binding Assay; settings: 2 hours at 25° C.
T4 construct: catalytic domain (JH1, amino acids 826-1132) of human JAK2; purchased Carna Biosciences 08-445-20N; host or cells: baculovirus expression system
T4 sequence (O60674 826-1132): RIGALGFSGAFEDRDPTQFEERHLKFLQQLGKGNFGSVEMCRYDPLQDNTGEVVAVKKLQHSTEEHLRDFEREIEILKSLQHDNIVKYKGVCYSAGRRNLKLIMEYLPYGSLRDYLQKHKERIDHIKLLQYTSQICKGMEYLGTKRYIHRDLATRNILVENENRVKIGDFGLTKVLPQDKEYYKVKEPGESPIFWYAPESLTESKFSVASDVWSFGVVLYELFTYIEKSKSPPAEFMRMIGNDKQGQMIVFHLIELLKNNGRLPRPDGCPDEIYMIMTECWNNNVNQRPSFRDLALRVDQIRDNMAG
How it was run: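 FLAG-tagged biotinylated JAK2 JH1 (1.5 nM) incubated with compounds, 50 nM fluorescent tracer and 0.5 nM streptavidin-Tb in Tris pH 7.5 buffer with MgCl2, BSA, DTT, 2 h at 25 °C.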

Compound | IC50 [1] | IC50 [2] | IC50 [3] | IC50 [4]
CCS(=O)(=O)N1CC2(C1)CC1(C2)C(=O)N(C)c2cnc3[nH]c(-c4cnn5c4CCC5)c(-c4ccc5c(cnn5C)c4)c3c21 [Example 94, 2″-(5,6-Dihydro-4H-pyrrolo[l,2-b]pyrazol-3-yl)-1-(ethylsulfonyl)-6″-methyl-1″-(1-methyl-1H-indazol-5-yl)-3″,6″-dihydro-7″-dispiro[azetidine-3,1′-cyclobutane-3′,8″-dipyrrolo[2,3-b:3′,2′-d]pyridin]-7″-one, trifluoroacetate salt] | > 2500 nM | ≤ 100 nM | ≤ 100 nM | > 2500 nM
O=C(O)C(F)(F)F.[2H]C([2H])([2H])N1C(=O)C2(CC3(CN(S(=O)(=O)CC)C3)C2)c2c1cnc1[nH]c(-c3cnn(CC)c3)c(-c3ccc(OC)cc3)c21 [Example 95, 2″-(1-Ethyl-1H-pyrazol-4-yl)-1-(ethylsulfonyl)-1″-(4-methoxyphenyl)-6″-(methyl-d3)-3″,6″-dihydro-7″H-dispiro[azetidine-3,1′-cyclobutane-3′,8″-dipyrrolo[2,3-b:3′,2′-d]pyridin]-7″-one, trifluoroacetate salt] | 500 to 1250 nM | ≤ 100 nM | ≤ 100 nM | 500 to 1250 nM
O=C(O)C(F)(F)F.[2H]C([2H])([2H])n1ncc2cc(-c3c(-c4cnn(CC(C)(C)OC)c4)[nH]c4ncc5c(c34)C3(CC4(CN(S(=O)(=O)CC)C4)C3)C(=O)N5C)ccc21 [Example 96, 1-(Ethylsulfonyl)-2″-(1-(2-methoxy-2-methylpropyl)-1H-pyrazol-4-yl)-6″-methyl-1″-(1-(methyl-d3)-1H-indazol-5-yl)-3″,6″-dihydro-7″H-dispiro[azetidine-3,1′-cyclobutane-3′,8″-dipyrrolo[2,3-b:3′,2′-d]pyridin]-7″-one, trifluoroacetate salt] | > 2500 nM | ≤ 100 nM | ≤ 100 nM | > 2500 nM
CCS(=O)(=O)N1CC2(C1)CC1(C2)C(=O)N(C)c2cnc3[nH]c(-c4cnn(CC5CCOCC5)c4)c(-c4ccc5c(cnn5C)c4)c3c21 [Example 97, 1-(Ethylsulfonyl)-6″-methyl-1″-(1-methyl-1H-indazol-5-yl)-2″-(1-((tetrahydro-2H-pyran-4-yl)methyl)-1H-pyrazol-4-yl)-3″,6″-dihydro-7″H-dispiro[azetidine-3,1′-cyclobutane-3′,8″-dipyrrolo[2,3-b:3′,2′-d]pyridin]-7″-one, trifluoroacetate salt] | 1250 to 2500 nM | ≤ 100 nM | ≤ 100 nM | 1250 to 2500 nM
